The source of these data is ChEMBL document CHEMBL5291721, “A preclinical secondary pharmacology resource illuminates target-adverse drug reaction associations of marketed drugs” (Nat Commun, 2023).

Test [1] has as its target Beta-3 adrenergic receptor (Homo sapiens, UniProt P13945).
The target in test [2] is T1, Alpha-1A adrenergic receptor (Homo sapiens, UniProt P35348).
T1 sequence (P35348 whole entry): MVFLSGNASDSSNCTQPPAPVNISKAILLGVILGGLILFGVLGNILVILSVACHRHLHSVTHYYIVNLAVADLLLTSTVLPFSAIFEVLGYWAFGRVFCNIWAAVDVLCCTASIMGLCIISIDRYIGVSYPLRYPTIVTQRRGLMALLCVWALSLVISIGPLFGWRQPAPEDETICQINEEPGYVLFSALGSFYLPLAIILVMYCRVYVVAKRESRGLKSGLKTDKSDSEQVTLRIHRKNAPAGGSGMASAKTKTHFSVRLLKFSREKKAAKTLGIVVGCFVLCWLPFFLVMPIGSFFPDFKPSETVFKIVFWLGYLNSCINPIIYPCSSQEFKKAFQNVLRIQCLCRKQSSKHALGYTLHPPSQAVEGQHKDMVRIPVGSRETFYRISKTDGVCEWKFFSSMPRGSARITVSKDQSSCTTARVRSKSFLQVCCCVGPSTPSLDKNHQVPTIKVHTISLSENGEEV

For test [3], the target named is Melanocortin receptor 4 (Homo sapiens, UniProt P32245).
Melanocortin receptor 4, sequence (P32245 whole entry): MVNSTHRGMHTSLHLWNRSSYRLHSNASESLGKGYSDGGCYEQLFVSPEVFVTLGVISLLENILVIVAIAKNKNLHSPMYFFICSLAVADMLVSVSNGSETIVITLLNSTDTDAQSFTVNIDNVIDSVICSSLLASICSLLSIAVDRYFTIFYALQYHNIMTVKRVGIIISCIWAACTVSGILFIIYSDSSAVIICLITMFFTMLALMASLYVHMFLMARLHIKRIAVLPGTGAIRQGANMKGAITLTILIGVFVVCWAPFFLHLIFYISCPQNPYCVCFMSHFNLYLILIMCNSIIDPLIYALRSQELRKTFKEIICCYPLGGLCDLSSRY
Test [4] concerns the target T2, Glucocorticoid receptor (Homo sapiens, UniProt P04150).
T2 sequence (P04150 whole entry): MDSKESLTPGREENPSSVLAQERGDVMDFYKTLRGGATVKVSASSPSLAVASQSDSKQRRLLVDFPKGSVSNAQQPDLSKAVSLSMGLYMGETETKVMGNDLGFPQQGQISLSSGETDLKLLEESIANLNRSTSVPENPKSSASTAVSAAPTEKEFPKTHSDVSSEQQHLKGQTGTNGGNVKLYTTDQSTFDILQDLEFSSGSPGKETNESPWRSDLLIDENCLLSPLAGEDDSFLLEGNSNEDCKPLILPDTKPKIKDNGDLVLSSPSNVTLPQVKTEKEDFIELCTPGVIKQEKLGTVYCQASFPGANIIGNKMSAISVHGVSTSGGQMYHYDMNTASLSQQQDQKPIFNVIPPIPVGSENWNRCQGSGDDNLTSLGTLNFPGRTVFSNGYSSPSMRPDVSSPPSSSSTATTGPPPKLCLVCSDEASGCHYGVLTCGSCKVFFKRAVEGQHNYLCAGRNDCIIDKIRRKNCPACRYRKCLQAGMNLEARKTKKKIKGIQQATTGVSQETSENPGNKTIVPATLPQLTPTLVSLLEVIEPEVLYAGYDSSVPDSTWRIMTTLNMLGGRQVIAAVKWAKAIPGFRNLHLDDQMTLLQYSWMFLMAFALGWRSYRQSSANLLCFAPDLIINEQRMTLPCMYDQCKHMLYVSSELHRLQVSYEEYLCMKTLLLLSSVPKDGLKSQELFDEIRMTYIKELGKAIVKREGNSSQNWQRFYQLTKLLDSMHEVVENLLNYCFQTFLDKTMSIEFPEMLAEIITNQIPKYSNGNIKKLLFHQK

Test [5] concerns the target T3, B1 bradykinin receptor (Homo sapiens, UniProt P46663).
T3 sequence (P46663 whole entry): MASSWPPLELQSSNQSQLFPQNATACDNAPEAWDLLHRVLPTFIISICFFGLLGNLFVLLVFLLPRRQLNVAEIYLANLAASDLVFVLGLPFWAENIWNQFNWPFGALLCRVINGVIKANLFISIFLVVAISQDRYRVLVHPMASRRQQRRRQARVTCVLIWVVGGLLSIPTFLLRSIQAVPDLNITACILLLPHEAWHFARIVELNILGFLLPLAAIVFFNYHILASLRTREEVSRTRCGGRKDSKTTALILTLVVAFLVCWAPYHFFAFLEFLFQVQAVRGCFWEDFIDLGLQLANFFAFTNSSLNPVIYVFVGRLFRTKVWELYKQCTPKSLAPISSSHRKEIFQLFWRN

In test [6] the target is Voltage-dependent L-type calcium channel subunit alpha-1C (Rattus norvegicus, UniProt P22002). It counts as functional.
Voltage-dependent L-type calcium channel subunit alpha-1C, sequence (P22002 whole entry): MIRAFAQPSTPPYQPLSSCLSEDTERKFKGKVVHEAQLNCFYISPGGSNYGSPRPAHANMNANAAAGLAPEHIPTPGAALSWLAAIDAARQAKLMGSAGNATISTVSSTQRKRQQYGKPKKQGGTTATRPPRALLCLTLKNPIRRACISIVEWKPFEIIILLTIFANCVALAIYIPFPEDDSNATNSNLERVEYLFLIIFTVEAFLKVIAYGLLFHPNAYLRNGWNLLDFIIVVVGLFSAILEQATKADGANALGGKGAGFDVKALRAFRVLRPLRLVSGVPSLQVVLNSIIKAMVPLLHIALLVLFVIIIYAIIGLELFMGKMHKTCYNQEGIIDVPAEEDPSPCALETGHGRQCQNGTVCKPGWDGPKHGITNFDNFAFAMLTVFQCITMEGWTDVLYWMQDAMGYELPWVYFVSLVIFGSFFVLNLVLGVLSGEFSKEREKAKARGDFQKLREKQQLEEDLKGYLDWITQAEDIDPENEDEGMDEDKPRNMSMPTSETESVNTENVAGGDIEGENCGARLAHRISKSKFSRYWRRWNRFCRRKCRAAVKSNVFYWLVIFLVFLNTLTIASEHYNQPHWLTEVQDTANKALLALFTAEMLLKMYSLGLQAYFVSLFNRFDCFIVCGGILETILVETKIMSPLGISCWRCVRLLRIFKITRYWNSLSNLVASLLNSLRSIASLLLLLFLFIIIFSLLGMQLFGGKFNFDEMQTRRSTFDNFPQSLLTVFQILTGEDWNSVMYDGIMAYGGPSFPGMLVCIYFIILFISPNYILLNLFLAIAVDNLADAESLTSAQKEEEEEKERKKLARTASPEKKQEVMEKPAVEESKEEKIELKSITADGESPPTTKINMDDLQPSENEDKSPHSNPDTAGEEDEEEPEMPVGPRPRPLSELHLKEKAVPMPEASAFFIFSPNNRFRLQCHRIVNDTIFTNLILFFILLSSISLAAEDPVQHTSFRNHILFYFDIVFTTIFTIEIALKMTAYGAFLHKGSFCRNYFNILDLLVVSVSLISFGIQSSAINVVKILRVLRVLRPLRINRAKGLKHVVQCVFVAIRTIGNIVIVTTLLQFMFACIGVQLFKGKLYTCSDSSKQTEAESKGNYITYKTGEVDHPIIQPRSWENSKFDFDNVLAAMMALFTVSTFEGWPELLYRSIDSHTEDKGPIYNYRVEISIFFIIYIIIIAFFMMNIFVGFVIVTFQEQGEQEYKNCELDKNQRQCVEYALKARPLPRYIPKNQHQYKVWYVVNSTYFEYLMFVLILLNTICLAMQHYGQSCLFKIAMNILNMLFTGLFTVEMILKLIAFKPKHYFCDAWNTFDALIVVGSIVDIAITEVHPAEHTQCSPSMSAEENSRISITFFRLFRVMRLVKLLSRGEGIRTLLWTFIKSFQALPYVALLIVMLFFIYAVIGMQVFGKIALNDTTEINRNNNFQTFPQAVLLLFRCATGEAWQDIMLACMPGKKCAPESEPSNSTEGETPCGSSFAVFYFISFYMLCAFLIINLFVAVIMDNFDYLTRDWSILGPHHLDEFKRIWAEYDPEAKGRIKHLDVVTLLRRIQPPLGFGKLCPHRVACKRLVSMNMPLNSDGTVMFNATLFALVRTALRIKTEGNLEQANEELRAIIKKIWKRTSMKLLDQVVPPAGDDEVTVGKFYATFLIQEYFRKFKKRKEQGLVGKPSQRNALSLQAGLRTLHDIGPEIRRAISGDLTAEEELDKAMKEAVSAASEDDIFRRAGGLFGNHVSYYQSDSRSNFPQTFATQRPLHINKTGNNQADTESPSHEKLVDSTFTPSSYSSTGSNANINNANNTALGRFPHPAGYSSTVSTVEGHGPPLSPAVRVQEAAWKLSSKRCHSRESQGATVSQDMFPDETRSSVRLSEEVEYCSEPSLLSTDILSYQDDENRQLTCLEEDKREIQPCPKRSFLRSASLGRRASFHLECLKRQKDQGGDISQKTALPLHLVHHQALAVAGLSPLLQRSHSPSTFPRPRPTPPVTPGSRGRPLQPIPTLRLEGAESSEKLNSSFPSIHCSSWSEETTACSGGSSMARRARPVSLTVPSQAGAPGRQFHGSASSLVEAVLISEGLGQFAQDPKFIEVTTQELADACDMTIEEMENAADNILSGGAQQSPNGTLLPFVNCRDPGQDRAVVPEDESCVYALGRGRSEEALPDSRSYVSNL
Test [7] deals with T4, Neuropeptide Y receptor type 2 (Homo sapiens, UniProt P49146).
T4 sequence (P49146 whole entry): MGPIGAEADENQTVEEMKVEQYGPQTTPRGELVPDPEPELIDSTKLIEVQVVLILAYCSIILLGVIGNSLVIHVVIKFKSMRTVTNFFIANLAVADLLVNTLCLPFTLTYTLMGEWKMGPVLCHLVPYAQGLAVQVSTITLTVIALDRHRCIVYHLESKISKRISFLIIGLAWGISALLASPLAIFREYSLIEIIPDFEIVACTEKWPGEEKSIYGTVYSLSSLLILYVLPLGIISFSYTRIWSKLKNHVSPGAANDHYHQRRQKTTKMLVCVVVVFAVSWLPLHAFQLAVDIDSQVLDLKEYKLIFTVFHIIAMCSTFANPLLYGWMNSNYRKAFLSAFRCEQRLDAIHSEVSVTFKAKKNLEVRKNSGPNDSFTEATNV

The target in test [8] is T5, Alpha-2B adrenergic receptor (Homo sapiens, UniProt P18089).
T5 sequence (P18089 whole entry): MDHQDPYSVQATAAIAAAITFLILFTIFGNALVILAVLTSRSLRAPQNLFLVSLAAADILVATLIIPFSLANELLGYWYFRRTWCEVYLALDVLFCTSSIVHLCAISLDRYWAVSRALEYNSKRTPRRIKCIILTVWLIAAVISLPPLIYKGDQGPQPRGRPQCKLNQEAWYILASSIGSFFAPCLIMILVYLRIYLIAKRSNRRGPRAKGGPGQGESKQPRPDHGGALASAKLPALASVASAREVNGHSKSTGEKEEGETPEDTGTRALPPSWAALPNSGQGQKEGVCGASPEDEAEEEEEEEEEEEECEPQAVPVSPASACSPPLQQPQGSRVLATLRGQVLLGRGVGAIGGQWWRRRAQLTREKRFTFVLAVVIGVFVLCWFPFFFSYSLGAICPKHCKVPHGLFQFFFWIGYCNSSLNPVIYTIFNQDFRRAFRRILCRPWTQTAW
Note: assay procedure not described here.

Beta-3 adrenergic receptor, sequence (P13945 whole entry): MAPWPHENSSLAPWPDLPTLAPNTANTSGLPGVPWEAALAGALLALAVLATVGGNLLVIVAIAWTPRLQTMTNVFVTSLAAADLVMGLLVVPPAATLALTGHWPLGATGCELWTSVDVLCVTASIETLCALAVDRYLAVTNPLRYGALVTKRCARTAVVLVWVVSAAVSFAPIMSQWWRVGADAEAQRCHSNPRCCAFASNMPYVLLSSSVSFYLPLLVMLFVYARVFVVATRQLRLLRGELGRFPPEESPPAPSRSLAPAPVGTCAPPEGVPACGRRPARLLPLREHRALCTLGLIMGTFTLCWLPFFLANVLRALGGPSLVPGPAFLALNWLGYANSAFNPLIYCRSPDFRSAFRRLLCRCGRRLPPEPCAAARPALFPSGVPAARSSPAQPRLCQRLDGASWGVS

Consider `CCOc1nc2cccc(C(=O)O)c2n1Cc1ccc(-c2ccccc2-c2nnn[nH]2)cc1`, for which the AC50 was above 30 µM in test [1]; above 10 µM in test [2]; above 10 µM in test [3]; above 30 µM in test [4]; above 30 µM in test [5]; above 10 µM in test [6]. In addition, in test [7], the AC50 was above 30 µM.
Take `CCOc1cc([C@@H](CS(C)(=O)=O)N2C(=O)c3cccc(NC(C)=O)c3C2=O)ccc1OC`: the AC50 in test [8] was above 30 µM.
For the molecule `CC(=O)Nc1ccc(CC(=O)O)cc1` [ACTARIT], the AC50 in test [8], in test [4] and in test [6] was above 30 µM in each case.
As to `CC(C(=O)O)c1ccc2oc(-c3ccc(Cl)cc3)nc2c1` (stereo unspecified) [BENOXAPROFEN], the concentration at half-maximal activity (AC50) in test [4] and in test [6] was above 30 µM throughout.
On to `CC1(C)S[C@@H]2[C@H](NC(=O)C(C(=O)O)c3ccccc3)C(=O)N2[C@H]1C(=O)O` (stereo partly specified) [CARBENICILLIN], for which the AC50 in test [8] and in test [4] was above 30 µM throughout.
In test [8], `Cc1nnc(SCC2=C(C(=O)O)N3C(=O)[C@@H](NC(=O)Cn4cnnn4)[C@H]3SC2)s1` [CEFAZOLIN] had an AC50 above 300 µM.
For `CC=CC1=C(C(=O)O)N2C(=O)[C@@H](NC(=O)[C@H](N)c3ccc(O)cc3)[C@H]2SC1` [CEFPROZIL], the AC50 in test [8], in test [3], in test [4] and in test [6] was above 30 µM throughout.
In the case of `CC(C)(O/N=C(\C(=O)N[C@@H]1C(=O)N2C(C(=O)[O-])=C(C[n+]3ccccc3)CS[C@H]12)c1csc(N)n1)C(=O)O` [CEFTAZIDIME], the figures for the AC50 in test [8] and in test [4] were above 300 µM and above 30 µM, respectively.
Regarding `CC(C)NC(=N)NC(=N)Nc1ccc(Cl)c(Cl)c1` [CHLORPROGUANIL], the AC50 in test [8] amounted to 10 µM.
`C[N+](C)(C)CCOP(=O)(O)OP(=O)([O-])OC[C@H]1O[C@@H](n2ccc(N)nc2=O)[C@H](O)[C@@H]1O` [CITICOLINE]: the AC50 in test [8] is above 30 µM.
Same read-out and setting: to `Clc1ccc(Cn2c(CN3CCCC3)nc3ccccc32)cc1` [CLEMIZOLE] belongs 13 µM.
In the case of `CCC(=O)O[C@]1(C(=O)CCl)[C@@H](C)C[C@H]2[C@@H]3CCC4=CC(=O)C=C[C@]4(C)[C@@]3(F)[C@@H](O)C[C@@]21C` [CLOBETASOL PROPIONATE], the half-maximal activity concentration (AC50) in test [4] came to 0.0078 µM.
Consider `Cc1nc(Nc2ncc(C(=O)Nc3c(C)cccc3Cl)s2)cc(N2CCN(CCO)CC2)n1` [DASATINIB], for which the AC50 in test [2] is above 10 µM; in test [8] it was above 30 µM; in test [3], above 30 µM; in test [5] it was above 10 µM; in test [6] it was above 10 µM; in test [7] it was above 10 µM.
As to `O=C(O)Cc1ccccc1Nc1c(Cl)cccc1Cl` [DICLOFENAC], the AC50 is above 30 µM in test [1]; 5 µM in test [2]; above 30 µM in test [3]; above 30 µM in test [5]; above 10 µM in test [6]; above 30 µM in test [7].
The molecule `Cc1onc(-c2c(F)cccc2Cl)c1C(=O)N[C@@H]1C(=O)N2[C@@H]1SC(C)(C)[C@@H]2C(=O)O` [FLOXACILLIN] showed a half-maximal activity concentration (AC50) in test [8] above 30 µM.
For `Cc1ccc(C)c(OCCCC(C)(C)C(=O)O)c1` [GEMFIBROZIL], the AC50 in test [1] is above 30 µM; in test [2], 13.7 µM; in test [3], above 30 µM; in test [5] it was above 30 µM; in test [6] it was above 10 µM; in test [7], above 30 µM.
`COc1ccccc1OC1(C)OC(=O)c2ccccc2O1` (stereo unspecified) [GUAIMESAL] came in with a concentration at half-maximal activity (AC50) in test [4] above 30 µM.
In the case of `CCCCCCCN(CC)CCCC(O)c1ccc(NS(C)(=O)=O)cc1` (stereo unspecified) [IBUTILIDE], the results for the AC50 in test [8], in test [4] and in test [6] were 18 µM, above 30 µM and above 30 µM, respectively.
Consider `COc1cc(C(C)=O)ccc1OCCCN1CCC(c2noc3cc(F)ccc23)CC1` [ILOPERIDONE], for which the activity in test [8] was half-maximal at 0.105 µM (AC50).
For the molecule `CC[C@@H](CO)NC(=O)[C@@H]1C=C2c3cccc4c3c(cn4C)C[C@H]2N(C)C1` [METHYSERGIDE], the half-maximal activity concentration (AC50) in test [1] was above 30 µM; in test [2], above 10 µM; in test [3] it was above 30 µM; in test [5], above 30 µM; in test [6], above 10 µM; in test [7], above 30 µM.
Consider `CNC(=C[N+](=O)[O-])NCCSCc1csc(CN(C)C)n1` [NIZATIDINE], for which the AC50 in test [2], in test [3], in test [4] and in test [6] was above 10 µM in each case.
`CN1Cc2c(N)cccc2C(c2ccccc2)C1` (stereo unspecified) [NOMIFENSINE]: the AC50 in test [8] and in test [4] was above 30 µM in each case.
In the case of `CC(CN1c2ccccc2Sc2ccccc21)N(C)C` (stereo unspecified) [PROMETHAZINE], the concentration at half-maximal activity (AC50) in test [1] was above 30 µM; in test [2], 0.0996 µM; in test [3] it was 25 µM; in test [5] it was above 30 µM; in test [6], above 10 µM; in test [7], above 30 µM.
Take `CCCc1cc(=O)[nH]c(=S)[nH]1` [PROPYLTHIOURACIL]: the AC50 in test [2], in test [3] and in test [6] was above 10 µM in each case.
On to `Cn1cc(C(=O)[C@@H]2CCc3nc[nH]c3C2)c2ccccc21` [RAMOSETRON], for which the AC50 is 0.34 µM in test [8], above 30 µM in test [4] and above 30 µM in test [6].
`CN(CCOc1ccc(CC2SC(=O)NC2=O)cc1)c1ccccn1` (stereo unspecified) [ROSIGLITAZONE]: the concentration at half-maximal activity (AC50) in test [1] is above 30 µM; in test [3] it was 23.7 µM; in test [5], above 30 µM; in test [6] it was above 30 µM; in test [7] it was above 30 µM.
On to `C[C@]12C=CC(=O)C=C1CC[C@H]1[C@@H]3C[C@@H](O)[C@](O)(C(=O)CO)[C@@]3(C)C[C@H](O)[C@@]12F` [TRIAMCINOLONE], for which the half-maximal activity concentration (AC50) in test [4] was 0.0091 µM.
In the case of `CC(C)C[C@H](NC(=O)[C@@H](O)[C@H](N)Cc1ccccc1)C(=O)O` [UBENIMEX], the results for the AC50 in test [4] and in test [6] were 20 µM and above 30 µM, respectively.
For `COc1cc(C(=O)NS(=O)(=O)c2ccccc2C)ccc1Cc1cn(C)c2ccc(NC(=O)OC3CCCC3)cc12` [ZAFIRLUKAST], the AC50 in test [2] is above 10 µM; in test [3], above 10 µM; in test [4], 24.9 µM; in test [6] it was above 10 µM.

One may read the AC50 as the concentration giving half of the maximal activity seen.
